According to ChEMBL document CHEMBL1133335, “Serendipitous synthesis of novel dehydro- and dechloro-pseudomycin B (PSB) derivatives” (Bioorg Med Chem Lett, 2000):
≈ marks a conversion by molar mass, not a printed value. Where a SMILES comes first, the peptide text is derived from it. Bridges are numbered along the chain shown (N, C = ends). [ ]: non-standard residue; d: D form. The star is where a group is joined. Tetradecanoyl(3R-OH) = CCCCCCCCCCC[C@@H](O)CC(=O)*; Asp(3S-OH) = N[C@H](C(=O)O)[C@H](O)C(=O)O; Thr(4-Cl) = N[C@H](C(=O)O)[C@H](O)CCl; aThr = C[C@H](O)[C@H](N)C(=O)O; dDab = NCC[C@@H](N)C(=O)O; Dab = NCC[C@H](N)C(=O)O; Dhb = C/C=C(\N)C(=O)O

Experiments:
[1] = test system: Mus musculus; test: Compound (at 20 mg/kg) was tested to induce tail vein irritation in mice; Positive; assay type: ADME, organism-based; parameters: dose 20 mg/kg; conditions: in vivo
[2] = test system: Aspergillus fumigatus; test: In vitro minimum inhibitory concentration against Aspergillus fumigatus; assay type: functional
[3] = test system: Candida albicans; test: In vitro minimum inhibitory concentration against Candida albicans; assay type: functional
[4] = test system: Cryptococcus neoformans; test: In vitro minimum inhibitory concentration against Cryptococcus neoformans; assay type: functional
[5] = test system: Mus musculus; test: Compound (at 20 mg/kg) was tested to induce tail vein irritation in mice; Negative; assay type: ADME, organism-based; parameters: dose 20 mg/kg; conditions: in vivo

Compound	Tail vein toxicity [1]	MIC [2] [µg/mL]	MIC [3] [µg/mL]	MIC [4] [µg/mL]	Tail vein toxicity [5]
C/C=C1\NC(=O)[C@H]([C@H](C)O)NC(=O)[C@H](CCN)NC(=O)[C@H](CCCCN)NC(=O)[C@H](CC(=O)O)NC(=O)[C@@H](CCN)NC(=O)[C@@H](NC(=O)C[C@H](O)CCCCCCCCCCC)COC(=O)[C@H]([C@H](O)CCl)NC(=O)[C@H]([C@H](O)C(=O)O)NC1=O [PSEUDOMYCIN B] ({Tetradecanoyl(3R-OH)}-S[dDab]DK[Dab][aThr][Dhb][Asp(3S-OH)][Thr(4-Cl)]; ester 1-C)	POSITIVE	20 (≈ 16.6 µM)	0.312 (≈ 0.258 µM)	< 0.01	–
C/C=C1\NC(=O)[C@H]([C@H](C)O)NC(=O)[C@H](CCN)NC(=O)[C@H](CCCCN)N2C(=O)C[C@H](NC(=O)[C@@H](CCN)NC(=O)[C@@H](NC(=O)C[C@H](O)CCCCCCCCCCC)COC(=O)/C(=C\CO)NC(=O)[C@H]([C@H](O)C(=O)O)NC1=O)C2=O	–	> 20	> 20	20 (≈ 17.3 µM)	–
C/C=C1\NC(=O)[C@H]([C@H](C)O)NC(=O)[C@H](CCN)NC(=O)[C@H](CCCCN)NC(=O)[C@H]2CC(=O)O[C@H](C(=O)O)[C@H](NC1=O)C(=O)N[C@@H]([C@H](O)CCl)C(=O)OC[C@H](NC(=O)C[C@H](O)CCCCCCCCCCC)C(=O)N[C@H](CCN)C(=O)N2	–	> 20	5 (≈ 4.2 µM)	0.625 (≈ 0.525 µM)	Negative
C/C=C1\NC(=O)[C@H]([C@@H](C)O)NC(=O)[C@@H](CCN)NC(=O)[C@H](CCCCN)N2C(=O)C[C@@H](NC(=O)[C@H](CCN)NC(=O)C(NC(=O)C[C@@H](O)CCCCCCCCCCC)COC(=O)[C@@H]([C@@H](O)CCl)NC(=O)[C@H]([C@H](O)C(=O)O)NC1=O)C2=O (stereo not given in full)	–	> 20	> 20	10 (≈ 8.41 µM)	Negative
